Values of other authors as cited in patent publication US20260007782A1, “PREPARATION METHOD FOR LIQUID COMPOSITION COMPRISING COMPOUND I AND USE IN MYOCARDIAL PERFUSION PET IMAGING” (SINOTAU PHARMACEUTICAL GROUP, priority 2022, published 2026).

Settings: animals

cardiac uptake (15 minutes post-injection): high
liver uptake (15 minutes post-injection): low
heart-to-liver ratio (maintained after 60 minutes): favorable
SMILES: CC(C)(C)n1ncc(OCc2cccc(Cn3cc(COCCOCC[18F])nn3)c2)c(Cl)c1=O [Compound I, 2-tert-butyl-4-chloro-5-((3-((4-((2-(2-fluoro[^18F]ethoxy)ethoxy)methyl)-1H-1,2,3-triazol-1-yl)methyl)benzyl)oxy)pyridazin-3(2H)-one]
